pIC50: −log10 of the molar value. Marks after values point to notes of the source that are not given here.
What was measured:
Format in all cases: cell-based
WIDR = test: Cytotoxicity in wild-type (NR−) human colon cell line WIDR
WC14.10 = test: Cytotoxicity in NTR-transfected (NR+) human colon cell line WC14.10; details: for pIC50: WC14.10 NTR-transfected
[1] = test system: A549 human lung carcinoma cells; test: Cytotoxicity in oxic and anoxic wild-type A549 human lung carcinoma cells; details: 4 h exposure; for pIC50: anoxic, read-out: IC50 WT anoxic
[2] = test system: A549 transfected with human cytochrome P450 reductase (P450R); test: Cytotoxicity in oxic and anoxic A549 cells transfected with human cytochrome P450 reductase; details: 4 h exposure; for pIC50: anoxic
SC3.2 = test: Cytotoxicity in NTR-transfected (NR+) human ovarian cell line SC3.2; details: for pIC50: SC3.2 NTR-transfected, 18 h exposure; for Ratio = IC50(NR−)/IC50(NR+) Human Ovarian: SKOV3 / SC3.2, 18 h exposure
SKOV3 = test: Cytotoxicity in wild-type (NR−) human ovarian cell line SKOV3

Row | SMILES | pIC50 (WIDR; 4 h exposure) | pIC50 (WC14.10; 4 h exposure) | Ratio = IC50(NR−)/IC50(NR+) Human colon (WC14.10; WIDR / WC14.10, 4 h exposure) | WT Ratio = IC50(aerobic)/IC50(anoxic) [1] | pIC50 [1] | P450R ratio = IC50(aerobic)/IC50(anoxic) [2] | pIC50 [2] | pIC50 (WIDR; 18 h exposure) | pIC50 (SC3.2) | Ratio = IC50(NR−)/IC50(NR+) Human Ovarian (SC3.2) | pIC50 (WC14.10; 18 h exposure) | Ratio = IC50(NR−)/IC50(NR+) Human colon (WC14.10; WIDR / WC14.10, 18 h exposure) | pIC50 (SKOV3; 18 h exposure) | pIC50 (WIDR; Homo sapiens, 18 h exposure) | pIC50 (SC3.2; Homo sapiens) | pIC50 (WC14.10; Homo sapiens, 18 h exposure) | pIC50 (SKOV3; Homo sapiens, SK-OV-3, 18 h exposure)
1 | CS(=O)(=O)OCCN(CCI)c1c(C(=O)NCCO)cc([N+](=O)[O-])cc1[N+](=O)[O-] [IIb4, 2-((2-Iodoethyl)-2-{[(2-hydroxyethyl)amino]carbonyl}-4,6-dinitroanilino)ethyl methanesulfonate] | 5.05 | 6.54 | 31^f | 7 | 5.35 | 95 | 6.35 | – | – | – | – | – | – | – | – | – | –
2 | CC(O)CNC(=O)c1cc([N+](=O)[O-])cc([N+](=O)[O-])c1N(CCBr)CCOS(C)(=O)=O (centres unmarked) [IIb5, 2-((2-Bromoethyl)-2-{[(2-hydroxypropyl)amino]carbonyl}-4,6-dinitroanilino)ethyl methanesulfonate] | 5.54 | 6.60 | 12^f | 19 | 5.40 | 150 | 6.47 | – | – | – | – | – | – | – | – | – | –
3 | CS(=O)(=O)OCCN(CCBr)c1c(C(=O)NCCCN2CCOCC2)cc([N+](=O)[O-])cc1[N+](=O)[O-] [IIb7, 2-[(2-Bromoethyl)-2-({[3-(4-morpholinyl)propyl]amino}carbonyl)-4,6-dinitroanilino]ethyl methanesulfonate] | – | – | – | – | – | – | – | 6.05 | 7.52 | 102 | 7.30 | 22 | 5.51 | – | – | – | –
4 | CS(=O)(=O)OCCN(CCCl)c1c(C(N)=O)cc([N+](=O)[O-])cc1[N+](=O)[O-] [IIb1, 2-[2-(Aminocarbonyl)(2-chloroethyl)-4,6-dinitroanilino]ethyl methanesulfonate] | – | – | – | – | – | – | – | 4.70 | 7.40 | 1890 | 7.15 | 303 | 4.10 | – | – | – | –
5 | COC(=O)CCNC(=O)c1cc([N+](=O)[O-])cc([N+](=O)[O-])c1N(CCBr)CCOS(C)(=O)=O [IIb9, Methyl 3-{[2-((2-bromoethyl){2-[(methylsulfonyl)oxy]ethyl}amino)-3,5-dinitrobenzoyl]amino}propanoate] | – | – | – | – | – | – | – | – | – | 25 | – | 6.3 | – | 5.84 | 6.82 | 6.62 | 5.43
6 | CS(=O)(=O)OCCN(CCCl)c1ccc([N+](=O)[O-])c(C(=O)NCCCN2CCOCC2)c1[N+](=O)[O-] [IIc9, 2-[(2-Chloroethyl)-3-({[3-(4-morpholinyl)propyl]amino}carbonyl)-2,4-dinitroanilino]ethyl methanesulfonate] | – | – | – | – | – | – | – | 3.58 | 4.49 | 14 | 4.51 | 8.3 | 3.36 | – | – | – | –
7 | CS(=O)(=O)OCCN(CCBr)c1ccc([N+](=O)[O-])c(C(=O)NCC(O)CO)c1[N+](=O)[O-] (centres unmarked) [IIc8, 2-((2-Bromoethyl)-3-{[(2,3-dihydroxypropyl)amino]carbonyl}-2,4-dinitroanilino)ethyl methanesulfonate] | – | – | – | – | – | – | – | 3.67 | 5.74 | 509 | 5.82 | 141 | 3.05 | – | – | – | –
8 | CS(=O)(=O)OCCN(CCBr)c1c([N+](=O)[O-])ccc(C(N)=O)c1[N+](=O)[O-] [IIc2, 2-[3-(Aminocarbonyl)(2-bromoethyl)-2,6-dinitroanilino]ethyl methanesulfonate] | – | – | – | – | – | – | – | 4.07 | 6.68 | 724 | 6.51 | 271 | 3.82 | – | – | – | –
9 | CS(=O)(=O)OCCN(CCBr)c1cc(C(=O)NCCCO)c([N+](=O)[O-])cc1[N+](=O)[O-] [IIa6, 2-((2-Bromoethyl)5-{[(3-hydroxypropyl)amino]carbonyl}-2,4-dinitroanilino)ethyl methanesulfonate] | – | – | – | 2.4 | 3.46 | 18 | 4.51 | 3.34 | – | – | 5.30 | 91 | – | – | – | – | –
10 | CS(=O)(=O)OCCN(CCBr)c1cc(C(N)=O)c([N+](=O)[O-])cc1[N+](=O)[O-] [IIa3, 2-[5-(Aminocarbonyl)(2-bromoethyl)-2,4-dinitroanilino]ethyl methanesulfonate] | – | – | – | – | – | – | – | 4.10 | 6.72 | 715 | 6.66 | 387 | 3.87 | – | – | – | –
11 | CS(=O)(=O)OCCN(CCBr)c1cc(C(=O)NCC(O)CO)c([N+](=O)[O-])cc1[N+](=O)[O-] (centres unmarked) [IIa7, 2-((2-Bromoethyl)-5-{[(2,3-dihydroxypropyl)amino]carbonyl}-2,4-dinitroanilino)ethyl methanesulfonate] | – | – | – | – | – | – | – | 3.09 | 5.76 | – | 5.52 | 268 | 2.95 | – | – | – | –

— patent publication US7776924B2, “Nitroaniline-based alkylating agents and their use as prodrugs” (Auckland Uniservices Limited, priority 2002, dated 2010)
